Reference: patent US9062308B2, “Compositions and methods for treatment of tamoxifen resistant breast cancer” (The Johns Hopkins University, priority 2011, dated 2015)

What was measured:
[1] = test system: TGFα and HB-EGF; assay: TGFα and HB-EGF expression in MCF-10A-B7 cells under EGFR inhibition; assay type: cell-based
[2] = test system: LTED cells; settings: MCF-7-LTED cells; cited from earlier work
[3] = test system: MCF-7-B7 xenografts; assay: Xenograft analysis, tumor growth of MCF-7-B7 cells implanted s.c. in athymic mice; assay type: in vivo; settings: MCF-7-B7 xenografts in immunodeficient mice; TAM 83.3 μg/day; no exogenous estrogen supplement
Experimental: (§1) FIG. 3 depicts evidence that HOXB7 promotes TAM resistance. (3A) Immunoblot analysis of Phospho-EGFR, EGFR, P-MAPK, MAPK and HOXB7 expression levels in MCF-7-Vec and MCF-7-HOXB7 cells. (3B) Tumor growth curve of MCF-7-HOXB7 cells implanted s.c. in athymic Swiss female mice and treated with either vehicle or TAM (83.3 μg/day), in the absence of an exogenous estrogen supplement. […] (3D) Semi quantitative RT-PCR analysis of mRNA expression levels of TGFα, HB-EGF and Amphiregulin in HOXB7 expressing MCF-7 cells and their vector controls (left); Amphiregulin or TGFα mRNA expression in MCF-7-vec and MCF-7-B7 cells treated with either scrambled sequence siRNA or ERα-specific siRNA (right) (3E) Diagram representing the HOXB7 binding sites in EGFR promoter region. MCF-7 cells were transfected with pcDNA3-Flag-HOXB7 and Vector plasmid, ChIP was performed by IP with either anti-Flag M2 antibody or control IgG. (3F) Luciferase activity of deletion/truncation constructs of the EGFR promoter, with (solid box) and without (slashed box) transfected HOXB7 plasmid, to map minimal region necessary for activation by HOXB7.
Xenograft Analysis. […] At necropsy, primary tumors, liver, lung and spleen were evaluated for the presence of macroscopic tumors. […]

[4] = test system: HOXB7 mRNA; assay: Real time quantitative PCR analysis of HOXB7 mRNA levels; assay type: cell-based
Experimental: (4A) Real time quantitative PCR analysis of HOXB7 mRNA levels in MCF-7 cells. Cells were incubated in estrogen deprived condition for 72 hours [DMEM phenol red-free medium containing 5% Dextran charcoal stripped serum (DCC-FBS)]; the cells were then treated with 0.1-100 nM estrogen (E2); […]; Inset: Semi-quantitative RT-PCR analysis of HOXB7 mRNA following 1 uM TAM treatment for 24 hour. (4B) Real time quantitative PCR analysis of HOXB7. mRNA levels in MDA-MB-231 and MDA-MB-453 cells were transiently transfected with ERα expression plasmid and vector control for 48 hours. ERIN, a ERα overexpressed cell line, was used with MCF10A as a control. (4C) Immunoblot analysis of HOXB7 and ERα expression levels in transient transfectants of MDA-MB-231-ERα.
Real-time PCR of HOXB7 expression. HOXB7 gene expression was quantitated by Taqman real-time quantitative PCR in triplicate in 96-well plate using an ABI 7900HT (Applied Biosystems) using cDNA derived from our previously published cohort of tumor samples (Cancer research 62(3):827-834). The sequences of the HOXB7 PCR primer pairs and fluorogenic MGB probe (5′ to 3′), respectively, are: AAAACCTACCACTCGCGTGTTC (SEQ ID NO: 5), GGA CGG GAA GCA AGA AGC A (SEQ ID NO: 6), and VIC-CAA GCG CCT GGC TG (SEQ ID NO: 7).

[5] = test system: MCF-7-B7 cells; assay: Soft agar colony formation by MCF-7-B7 cells; assay type: cell-based
Experimental: as §1

[6] = test system: EGFR, MAPK, ERα and HOXB7; assay: Immunoblot analysis of MCF-7 cells treated long-term with TAM; assay type: cell-based
Experimental: (§2) (2A) Immunoblot analysis of Phospho-EGFR (Y1068), EGFR, Phospho-MAPK, MAPK, Phospho-ERα (S118), ERα, and HOXB7 expression in MCF-7 cells treated long-term with either vehicle or 0.1 μM TAM (TMR1) or 1 μM TAM (TMR2). (2B) Immunoblot analysis of EGFR, Phospho-MAPK, MAPK and HOXB7 expression in MCF-7-TMR cells and BT474 transfected with either scrambled sequence siRNA or HOXB7-specific siRNA. (2C) Soft agar colony formation in BT474 cells and MCF-7-TMR cells transfected with either scrambled sequence siRNA or HOXB7-specific siRNA treated with Vehicle or 1 μM TAM.
(§3) HOXB7 in the acquisition of anti-estrogen resistance. Because of the observation of a striking similarity in phenotype between prolonged endocrine therapy primed TAM-resistant models and our HOXB7 overexpressing cells, the hypothesis that HOXB7 is a mediator of anti-estrogen resistance was investigated. MCF-7 cell lines were derived, and exposed to either vehicle or TAM (0.1 μM or 1 μM) for over 12 months (designated MCF-7-TMR1 or MCF-7-TMR2 respectively).

[7] = test system: EGFR, p44/42 MAPK and ERα phosphorylation; assay: EGFR signaling in estrogen deprived MCF-7-B7 cells treated with TAM; assay type: cell-based
Source text: These observations indicate that under the treatment conditions, nongenomic ERα action occurred to activate EGFR signaling.

[8] = test system: MCF-7-Vec cells; assay: TAM treatment in culture, apoptosis and cell viability, MCF-7-Vec cells; assay type: cell-based; settings: MCF-7-Vec cells in culture
[9] = test system: MCF-7-B7 cells; assay: TAM treatment in culture, apoptosis and cell viability, MCF-7-B7 cells; assay type: cell-based; settings: MCF-7-B7 cells in culture
[10] = test system: MCF-7-TMR cells; assay: Soft agar colony formation in MCF-7-TMR cells; assay type: cell-based
Experimental: as §2, §3

[11] = test system: ERα-positive breast cancer; settings: patients with acquired resistance who progress on TAM; cited from earlier work
[12] = test system: EGFR, p44/42 MAPK, ARG and TGFα; assay: EGFR activity and EGFR ligand levels in MCF-7-B7 cells after ER downregulation; assay type: cell-based
Experimental: as §1

[13] = test system: BT474 cells; assay: Soft agar colony formation in BT474 cells; assay type: cell-based; settings: 1 μM gefitinib and 1 μM TAM
Experimental: as §2

COc1cc2ncnc(Nc3cccc(Cl)c3)c2cc1OC [AG1478]
elevated expression of TGFα and HB-EGF [1]: significantly abrogated

CC/C(=C(\c1ccccc1)c1ccc(OCCN(C)C)cc1)c1ccccc1 [TAM, tamoxifen]
sensitivity of LTED cells [2]: refractory | tumor growth response to TAM [3]: failed to respond to the inhibitory effects of TAM | HOXB7 mRNA levels ([4]; MCF-7 and T47D cells, tamoxifen in medium containing 10% FBS): increased | downregulation of HOXB7 expression by estradiol ([4]; tamoxifen added to estradiol): abrogated | colony formation in soft agar in the presence of tamoxifen ([5]; TAM 1 μM): at frequencies similar to vehicle treated cells | HOXB7 expression ([6]; MCF-7-TMR cells (long-term TAM)): upregulated | levels of HOXB7 expression over time ([6]; MCF-7 cells, 0.1 μM TAM, 0, 2, 4, 6 months, data not shown): progressively increasing levels of HOXB7 expression | expression of EGFR, activated MAPK and ERα, total ERα ([6]; MCF-7 cells, TAM 0.1 μM or 1 μM for over 12 months): elevated expression of EGFR and activated MAPK and ERα, but no significant change of total ERα | active EGFR, p44/42 MAPK activity and ERα phosphorylation ([7]; MCF-7-B7 cells in estrogen deprived conditions, TAM for 24 hours, vs MCF-7-Vec cells): significantly higher levels of active forms of EGFR, increased p44/42 MAPK activity and ERα phosphorylation | phosphorylation of EGFR, p44 MAPK and ER ([7]; estrogen deprived MCF-7-B7 cells, 1 μM TAM for 0-30 minutes, data not shown): elevated phosphorylation of EGFR, activation of p44 MAPK, and ER phosphorylation at Serine 118 | apoptosis and cell viability [8]: increased apoptosis and decreased cell viability | sensitivity to TAM treatment (apoptosis, cell viability) [9]: minimally sensitive | resistance to TAM treatment by colony formation assay ([10]; MCF-7-TMR1 cells (0.1 μM TAM for over 12 months), data not shown): significant resistance to TAM treatment

C[C@]12CC[C@@H]3c4ccc(O)cc4CC[C@H]3[C@@H]1CC[C@@H]2O [estradiol, 17β-estradiol]
HOXB7 expression ([4]; estradiol stimulation in estrogen-deprived growth conditions (5% charcoal stripped serum)): significantly reduced

C[C@]12CC[C@@H]3c4ccc(O)cc4C[C@@H](CCCCCCCCC[S+]([O-])CCCC(F)(F)C(F)(F)F)[C@H]3[C@@H]1CC[C@@H]2O (stereo partly shown) [fulvestrant]
sensitivity of LTED cells [2]: sensitive | patients who respond [11]: 20% | EGFR and p44/42 MAPK activity ([12]; HOXB7 overexpression (MCF-7-B7 cells)): modestly reduced increases in EGFR and p44/42 MAPK activity | levels of the autocrine/paracrine EGFR ligands (ARG and TGFα) ([12]; MCF-7-B7 cells): significant reduction

COc1cc2ncnc(Nc3ccc(F)c(Cl)c3)c2cc1OCCCN1CCOCC1 [gefitinib]
re-sensitization to TAM treatment, soft agar colony formation ([5]; 1 μM gefitinib with TAM 1 μM): significantly re-sensitized them to TAM treatment | effect on TAM action, soft agar colony formation [13]: dramatically converted TAM to a potent antagonist | effect on TAM action, soft agar colony formation ([10]; MCF-7-TMR cells, 1 μM gefitinib and 1 μM TAM): dramatically converted TAM to a potent antagonist
